Holding throughout (settings): substrate 3KB-G5-CNP, hydrolysis
The target of assay [1] is Saccharomycopsis fibuligera α-amylase (Sfamy) variant SfamyY83L, Y83L, SEQ ID NO: 6 (Saccharomycopsis fibuligera, UniProt P21567, Y109L).
Description: (§1) Furthermore, using a substrate with both its non-reducing end terminus and its reducing end terminus modified, i.e. 3KB-G5 -CNP (chloronitrophenyl maltopentaose wherein the hydroxyl group at position 3 of the glucose residue at the non-reducing end terminus is ketobutylated; manufactured by Ono Pharmaceutical Company), the hydrolysis activities of the wild-type enzyme and the variant-type enzymes were determined. 3KB-G5 -CNP cannot function as a substrate for transglycosylation reaction because of the modification of both of the termini, and therefore, only the hydrolysis activity can be assayed.
Assay [2] has as its target Saccharomycopsis fibuligera α-amylase (Sfamy) variant SfamyY83F, Y83F, SEQ ID NO: 2 (Saccharomycopsis fibuligera, UniProt P21567, A249P/Y109F).
Description: as §1
In assay [3] the target is Saccharomycopsis fibuligera α-amylase (Sfamy) variant SfamyY83W, Y83W, SEQ ID NO: 4 (Saccharomycopsis fibuligera, UniProt P21567, Y109W).
Description: as §1
Assay [4] deals with Saccharomycopsis fibuligera α-amylase (Sfamy) variant SfamyY83N, Y83N, SEQ ID NO: 8 (Saccharomycopsis fibuligera, UniProt P21567, Y109N).
Description: as §1
Assay [5] addresses T1, Saccharomycopsis fibuligera α-amylase (Sfamy), wild type (Saccharomycopsis fibuligera, UniProt P21567).
T1 sequence (P21567 27-494): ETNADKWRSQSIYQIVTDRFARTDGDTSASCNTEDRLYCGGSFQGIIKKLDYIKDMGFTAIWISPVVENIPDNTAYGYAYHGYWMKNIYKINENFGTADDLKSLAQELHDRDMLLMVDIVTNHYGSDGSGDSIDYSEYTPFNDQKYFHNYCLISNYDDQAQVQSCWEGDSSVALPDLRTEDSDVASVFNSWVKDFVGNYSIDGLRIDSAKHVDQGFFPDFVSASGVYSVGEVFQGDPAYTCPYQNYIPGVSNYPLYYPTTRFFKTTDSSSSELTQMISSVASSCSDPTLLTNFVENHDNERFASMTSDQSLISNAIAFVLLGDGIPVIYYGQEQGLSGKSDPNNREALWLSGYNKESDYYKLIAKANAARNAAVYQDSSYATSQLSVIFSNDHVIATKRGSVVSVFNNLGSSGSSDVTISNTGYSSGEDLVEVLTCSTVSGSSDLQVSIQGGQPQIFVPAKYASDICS
Description: as §1

Saccharomycopsis fibuligera α-amylase (Sfamy) variant SfamyY83L, Y83L, SEQ ID NO: 6, sequence (P21567 27-494 Y109L): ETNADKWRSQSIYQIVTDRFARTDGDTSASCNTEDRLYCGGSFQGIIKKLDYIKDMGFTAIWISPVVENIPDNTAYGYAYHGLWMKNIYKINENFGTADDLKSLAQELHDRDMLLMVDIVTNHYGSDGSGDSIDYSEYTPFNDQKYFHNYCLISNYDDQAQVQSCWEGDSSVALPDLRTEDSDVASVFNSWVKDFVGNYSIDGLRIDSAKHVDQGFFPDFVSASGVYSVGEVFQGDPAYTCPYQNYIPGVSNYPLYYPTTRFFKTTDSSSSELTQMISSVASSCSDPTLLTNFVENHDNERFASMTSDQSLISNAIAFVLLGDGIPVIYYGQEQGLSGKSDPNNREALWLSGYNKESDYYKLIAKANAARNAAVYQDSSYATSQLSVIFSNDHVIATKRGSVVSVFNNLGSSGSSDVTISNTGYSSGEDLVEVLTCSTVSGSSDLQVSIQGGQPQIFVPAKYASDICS
Saccharomycopsis fibuligera α-amylase (Sfamy) variant SfamyY83N, Y83N, SEQ ID NO: 8, sequence (P21567 27-494 Y109N): as the sequence (P21567 27-494 Y109L) above, with L83N counted along it
Saccharomycopsis fibuligera α-amylase (Sfamy) variant SfamyY83F, Y83F, SEQ ID NO: 2, sequence (P21567 27-494 Y109F/A249P): as the sequence (P21567 27-494 Y109L) above, with L83F, A223P counted along it
Saccharomycopsis fibuligera α-amylase (Sfamy) variant SfamyY83W, Y83W, SEQ ID NO: 4, sequence (P21567 27-494 Y109W): as the sequence (P21567 27-494 Y109L) above, with L83W counted along it

As to `CC(=O)CC1OC[C@H]2O[C@H](O[C@H]3[C@H](O)[C@@H](O)[C@@H](O[C@H]4[C@H](O)[C@@H](O)[C@@H](O[C@H]5[C@H](O)[C@@H](O)[C@@H](O[C@H]6[C@H](O)[C@@H](O)[C@H](Oc7ccc([N+](=O)[O-])cc7Cl)O[C@@H]6CO)O[C@@H]5CO)O[C@@H]4CO)O[C@@H]3CO)[C@H](O)[C@@H](O)[C@@H]2O1` (stereo partly drawn) [3KB-G5 -CNP], the Km in assay [1] worked out at 120 µM; in assay [2], 130 µM; in assay [3], 150 µM; in assay [4], 190 µM; in assay [5] it was 60 µM. Moreover, the catalytic constant (kcat) in assay [1] was found to be 0.183 s⁻¹; in assay [2], 2.5 s⁻¹; in assay [3] it was 2.17 s⁻¹; in assay [4] it was 0.267 s⁻¹; in assay [5], 15.3 s⁻¹. The kcat/Km in assay [1] came out at 1550 M⁻¹ s⁻¹; in assay [2], 20000 M⁻¹ s⁻¹; in assay [3], 14500 M⁻¹ s⁻¹; in assay [4], 1430 M⁻¹ s⁻¹; in assay [5], 250000 M⁻¹ s⁻¹.

Values taken from US5538882A, “Variant-type carbohydrate hydrolase, variant gene of the enzyme and method for producing oligosaccharide using the enzyme” (priority 1993, dated 1996).
